Source: ChEMBL document CHEMBL1629701, “Phase 2a randomized controlled trial of short-term activity, safety, and pharmacokinetics of a novel nonnucleoside reverse transcriptase inhibitor, RDEA806, in HIV-1-positive, antiretroviral-naive subjects” (Antimicrob Agents Chemother, 2010)
The source made the active and inactive calls. The calls are words filed in the database; no cut-off is given here.

How the values were obtained:
[1] = Plasma protein binding in dog; format: ADME, cell-free, Canis lupus familiaris; conditions: read-out: PPB
[2] = Plasma protein binding in rhesus monkey; format: ADME, cell-free, Macaca mulatta; conditions: read-out: PPB
[3] = Drug excretion in human urine; format: ADME; conditions: read-out: Activity
[4] = Drug excretion in rat urine; format: ADME, tissue-based; conditions: read-out: Activity
[5] = Drug excretion in dog urine; format: ADME, Canis lupus familiaris; conditions: read-out: Activity
[6] = Drug excretion in rhesus monkey urine; format: ADME, Macaca mulatta; conditions: read-out: Activity
[7] = Renal clearance in human; format: ADME, organism-based, Kidney; conditions: in vivo, read-out: CL_renal
[8] = Renal clearance in rat; format: ADME, organism-based, Kidney; conditions: in vivo, read-out: CL_renal
[9] = Renal clearance in dog; format: ADME, organism-based, Canis lupus familiaris, Kidney; conditions: in vivo, read-out: CL_renal
[10] = Renal clearance in rhesus monkey; format: ADME, organism-based, Macaca mulatta, Kidney; conditions: in vivo, read-out: CL_renal
[11] = Terminal half life […] at 300 to 500 mg; format: ADME
[12] = organism: Homo sapiens; assay: Toxicity in healthy human assessed as occurrence of adverse events; format: organism-based; conditions: in vivo
[13] = organism: Homo sapiens; assay: Cardiotoxicity in healthy human assessed as changes in electrocardiographic QTc interval; format: toxicity, organism-based; conditions: in vivo
[14] = organism: Homo sapiens; assay: Reduction in uric acid level in human plasma; format: functional, organism-based
[15] = tested on: Human immunodeficiency virus 1; assay: Antiviral activity against HIV1 infected in fasted human assessed as decrease in log10 HIV RNA copies/ml at 400 mg, po BID for 7 days as four modified-release capsules followed by a single dose on day 8 measured on day 9 relative to pooled placebo control; format: functional
[16] = tested on: Human immunodeficiency virus 1; assay: Antiviral activity against HIV1 infected in fasted human assessed as decrease in log10 HIV RNA copies/ml at 600 mg, po […] followed by a single dose on day 8 measured on day 9 relative to pooled placebo control; format: functional
[17] = tested on: Human immunodeficiency virus 1; assay: Antiviral activity against HIV1 infected in fasted human assessed as decrease in log10 HIV RNA copies/ml at 800 mg, po […] followed by a single dose on day 8 measured on day 9 relative to pooled placebo control; format: functional
[18] = tested on: Human immunodeficiency virus 1; assay: Antiviral activity against HIV1 infected in fasted human assessed as decrease in log10 HIV RNA copies/ml at 1000 mg, po […] followed by a single dose on day 8 measured on day 9 relative to pooled placebo control; format: functional
[19] = tested on: Human immunodeficiency virus 1; assay: Antiviral activity against HIV1 infected in fasted human assessed as decrease in plasma viral log10 RNA copies/ml at 400 mg, po BID for 7 days as four modified-release capsules followed by a single dose on day 8 measured on day 9 relative to pooled placebo control; format: functional
[20] = tested on: Human immunodeficiency virus 1; assay: Antiviral activity against HIV1 infected in fasted human assessed as decrease in plasma viral log10 RNA copies/ml at 600 mg, po […] followed by a single dose on day 8 measured on day 9 relative to pooled placebo control; format: functional
[21] = tested on: Human immunodeficiency virus 1; assay: Antiviral activity against HIV1 infected in fasted human assessed as decrease in plasma viral log10 RNA copies/ml at 800 mg, po […] followed by a single dose on day 8 measured on day 9 relative to pooled placebo control; format: functional
[22] = tested on: Human immunodeficiency virus 1; assay: Antiviral activity against HIV1 infected in fasted human assessed as decrease in plasma viral log10 RNA copies/ml at 1000 mg, po […] followed by a single dose on day 8 measured on day 9 relative to pooled placebo control; format: functional
[23] = tested on: Human immunodeficiency virus 1; assay: Antiviral activity against HIV1 infected in fasted human assessed as viral load decay rate as viral log10 RNA copies/ml/day at 400 mg, po BID for 7 days as four modified-release capsules followed by a single dose on day 8 measured on day 9; format: functional
[24] = tested on: Human immunodeficiency virus 1; assay: Antiviral activity against HIV1 infected in fasted human assessed as viral load decay rate as viral log10 RNA copies/ml/day at 600 mg, po BID for 7 days as four modified-release capsules followed by a single dose on day 8 measured per day for 9 days; format: functional
[25] = tested on: Human immunodeficiency virus 1; assay: Antiviral activity against HIV1 infected in fed human assessed as viral load decay rate as viral log10 RNA copies/ml/day at 800 mg, po administered every day as four enteric-coated tablets followed by a single dose on day 8 measured on day 9; format: functional
[26] = tested on: Human immunodeficiency virus 1; assay: Antiviral activity against HIV1 infected in fasted human assessed as as viral load decay rate as viral log10 RNA copies/ml/day at 1000 mg, po administered every day as five enteric-coated tablets followed by a single dose on day 8 measured on day 9; format: functional
[27] = tested on: Human immunodeficiency virus 1; assay: Antiviral activity against HIV1 infected in human assessed as log reduction in HIV-1 RNA level at 800 mg, po administered every day; format: functional
[28] = tested on: Human immunodeficiency virus 1; assay: Antiviral activity against HIV1 infected in human assessed as change in CD4 expressing T-cell count from baseline at 400 mg, po BID for 7 days as four modified-release capsules followed by a single dose on day 8 measured on day 9 relative to pooled placebo control; format: functional
[29] = tested on: Human immunodeficiency virus 1; assay: Antiviral activity against HIV1 infected in human assessed as change in CD8 expressing T-cell count from baseline at 400 mg, po BID for 7 days as four modified-release capsules followed by a single dose on day 8 measured on day 9 relative to pooled placebo control; format: functional
[30] = tested on: Human immunodeficiency virus 1; assay: Antiviral activity against HIV1 infected in human assessed as change in CD4 expressing T-cell count from baseline at 600 mg, po BID for 7 days as four modified-release capsules followed by a single dose on day 8 measured on day 9 relative to pooled placebo control; format: functional
[31] = tested on: Human immunodeficiency virus 1; assay: Antiviral activity against HIV1 infected in human assessed as change in CD8 expressing T-cell count from baseline at 600 mg, po BID for 7 days as four modified-release capsules followed by a single dose on day 8 measured on day 9 relative to pooled placebo control; format: functional
[32] = tested on: Human immunodeficiency virus 1; assay: Antiviral activity against HIV1 infected in human assessed as change in CD4 expressing T-cell count from baseline at 800 mg, po administered every day as four enteric-coated tablets followed by a single dose on day 8 measured on day 9 relative to pooled placebo control; format: functional
[33] = tested on: Human immunodeficiency virus 1; assay: Antiviral activity against HIV1 infected in human assessed as change in CD8 expressing T-cell count from baseline at 800 mg, po administered every day as four enteric-coated tablets followed by a single dose on day 8 measured on day 9 relative to pooled placebo control; format: functional

## O=C(CSc1nnc(Br)n1-c1ccc(C2CC2)c2ccccc12)Nc1ccc(C(=O)O)cc1Cl
[1]
  fraction unbound: < 0.01
[2]
  fraction unbound: < 0.01
[3]
  dose excreted: < 0.06%
[4]
  dose excreted: < 0.06%
[5]
  dose excreted: < 0.06%
[6]
  dose excreted: < 0.06%
[7]
  CL renal: ≤ 1 mL/min
[8]
  CL renal: ≤ 1 mL/min
[9]
  CL renal: ≤ 1 mL/min
[10]
  CL renal: ≤ 1 mL/min
[11]
  half-life: 624 min
[12]
  Activity: Non-toxic
[13]
  Activity: Non-toxic
[14]
  Activity: Active
[15]
  Activity: -1.948 mL⁻¹
[16]
  Activity: -1.394 mL⁻¹
[17]
  Activity: -1.619 mL⁻¹
[18]
  Activity: -1.696 mL⁻¹
[19]
  Activity: -2.0608 mL⁻¹
[20]
  Activity: -1.5241 mL⁻¹
[21]
  Activity: -1.7426 mL⁻¹
[22]
  Activity: -1.8189 mL⁻¹
[23]
  Activity: -0.25 mL⁻¹
[24]
  Activity: -0.18 mL⁻¹
[25]
  Activity: -0.2 mL⁻¹
[26]
  Activity: -0.22 mL⁻¹
[27]
  Activity: 0.5 mL⁻¹
[28]
  Activity: 19.22 /mm3
[29]
  Activity: -39.17 /mm3
[30]
  Activity: -14.44 /mm3
[31]
  Activity: 64.54 /mm3
[32]
  Activity: 100.74 /mm3
[33]
  Activity: 79.41 /mm3
